Our source for the Ki, EC50 and Ratio Ki(app) values is ChEMBL document CHEMBL1146051, “Novel inhibitors of hepatitis C NS3-NS4A serine protease derived from 2-aza-bicyclo[2.2.1]heptane-3-carboxylic acid” (Bioorg Med Chem Lett, 2006).

One experiment addresses NS3 (Hepatitis C virus, UniProt A3EZJ3). Put plainly: Inhibitory activity against HCV NS3 protease. The arrangement: species or system Hepacivirus hominis.
Another experiment relates to Hepatitis C virus. Nature of the experiment: Inhibition of HCV replication in a cellular replicon assay. In kind it is functional, organism-based, Hepacivirus hominis. For orientation: In antiviral work, replicon cells carry a viral genome segment that copies itself.
For a further experiment, the target named is T1, Neutrophil elastase (Homo sapiens, UniProt P08246).
T1 sequence (P08246 whole entry): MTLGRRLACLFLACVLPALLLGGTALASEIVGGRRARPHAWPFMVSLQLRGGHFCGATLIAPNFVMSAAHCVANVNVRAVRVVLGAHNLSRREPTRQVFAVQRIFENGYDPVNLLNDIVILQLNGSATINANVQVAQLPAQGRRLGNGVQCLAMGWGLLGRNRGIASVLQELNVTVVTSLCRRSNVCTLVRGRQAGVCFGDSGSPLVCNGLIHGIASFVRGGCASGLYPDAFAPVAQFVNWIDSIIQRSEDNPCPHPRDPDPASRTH
Nature of the experiment: Inhibitory activity against HNE. Conditions: read-out: Ki app.

The nature of experiment [1]: Selectivity for HNE over HCV NS3 protease.

Chain of NS3 (A3EZJ3 whole entry): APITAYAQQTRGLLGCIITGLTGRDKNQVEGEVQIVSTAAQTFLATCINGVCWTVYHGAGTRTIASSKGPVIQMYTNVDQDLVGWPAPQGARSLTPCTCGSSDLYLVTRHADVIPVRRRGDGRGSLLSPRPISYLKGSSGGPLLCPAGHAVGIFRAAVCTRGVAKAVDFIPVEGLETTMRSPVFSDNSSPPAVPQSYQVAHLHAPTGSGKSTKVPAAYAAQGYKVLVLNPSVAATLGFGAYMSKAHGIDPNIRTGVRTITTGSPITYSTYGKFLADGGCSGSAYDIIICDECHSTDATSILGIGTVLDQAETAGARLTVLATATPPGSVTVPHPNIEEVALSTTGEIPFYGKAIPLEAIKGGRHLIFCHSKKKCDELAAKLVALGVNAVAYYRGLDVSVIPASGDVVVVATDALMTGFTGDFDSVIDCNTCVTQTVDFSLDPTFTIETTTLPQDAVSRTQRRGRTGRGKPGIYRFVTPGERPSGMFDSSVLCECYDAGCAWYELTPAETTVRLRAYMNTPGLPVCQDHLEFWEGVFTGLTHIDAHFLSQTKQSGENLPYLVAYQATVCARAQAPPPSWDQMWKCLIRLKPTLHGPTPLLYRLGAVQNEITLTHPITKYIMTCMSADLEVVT

In the case of `CCCC(NC(=O)[C@@H]1C2CC([C@H]3C[C@@H]23)N1C(=O)[C@@H](NC(=O)C(C)(C)C)C1CCCCC1)C(=O)C(=O)NCC(=O)N[C@H](C(=O)N(C)C)c1ccccc1` (some centres undefined), at NS3 (read-out: Ki app), the Ki is 90 nM.

Take `CN(C)C(=O)[C@@H](NC(=O)CNC(=O)C(=O)C(CC1CC1)NC(=O)[C@@H]1C2CCC(C2)N1C(=O)[C@@H](NC(=O)OC(C)(C)C)C(C)(C)C)c1ccccc1` (some centres undefined): the Ki at NS3 (read-out: Ki app) amounted to 19 nM.

Turning to `CCCC(NC(=O)[C@@H]1C2CCC(C2)N1C(=O)[C@@H](NC(=O)OC(C)(C)C)C(C)(C)C)C(=O)C(=O)NCC(=O)N[C@H](C(=O)N(C)C)c1ccccc1` (some centres undefined), the Ki on NS3 (read-out: Ki app) came to 110 nM.

On to `CN(C)C(=O)[C@@H](NC(=O)CNC(=O)C(=O)C(CC1CCC1)NC(=O)[C@@H]1C2CCC(C2)N1C(=O)[C@@H](NC(=O)NC(C)(C)C)C1CCCCC1)c1ccccc1` (some centres undefined), for which, at NS3 (read-out: Ki app), the Ki stood at 21 nM.

Consider `CN(C)C(=O)[C@@H](NC(=O)CNC(=O)C(=O)C(CC1CC1)NC(=O)[C@@H]1C2CCC(C2)N1C(=O)[C@@H](NC(=O)NC(C)(C)C)C1CCCCC1)c1ccccc1` (some centres undefined), for which, at NS3 (read-out: Ki), the Ki came to 19 nM.

For the molecule `CN(C)C(=O)[C@@H](NC(=O)CNC(=O)C(=O)C(CC1CC1)NC(=O)[C@@H]1C2CCC(C2)N1C(=O)[C@@H](NC(=O)OC(C)(C)C)C1CCCCC1)c1ccccc1` (some centres undefined), on NS3 (read-out: Ki app), the Ki is 20 nM.

The EC50 is the concentration that produces a half-maximal response. Regarding `CCCCC(NC(=O)[C@@H]1C2CCC(C2)N1C(=O)[C@@H](NC(=O)OC(C)(C)C)C1CCCCC1)C(=O)C(=O)NCC(=O)N[C@H](C(=O)N(C)C)c1ccccc1` (some centres undefined), the EC50 in the experiment with Hepatitis C virus was 600 nM.

In the case of `CCCCC(NC(=O)[C@@H]1C2CCC(C2)N1C(=O)[C@@H](NC(=O)OC(C)(C)C)C(C)(C)C)C(=O)C(=O)NCC(=O)N[C@H](C(=O)N(C)C)c1ccccc1` (some centres undefined), the Ki at NS3 (read-out: Ki app) was 81 nM.

For `CCCCC(NC(=O)[C@@H]1C2CC([C@H]3C[C@@H]23)N1C(=O)[C@@H](NC(=O)C(C)(C)C)C1CCCCC1)C(=O)C(=O)NCC(=O)N[C@H](C(=O)N(C)C)c1ccccc1` (some centres undefined), the Ki at NS3 (read-out: Ki app) is 27 nM.

Regarding `C=CCNC(=O)C(=O)C(CCC)NC(=O)[C@@H]1C2CCC(C2)N1C(=O)[C@@H](NC(=O)OC(C)(C)C)C(C)(C)C` (some centres undefined), the Ki at NS3 (read-out: Ki app) was determined as 5500 nM.

Consider `CCCC(NC(=O)[C@@H]1C2CCC(C2)N1C(=O)[C@@H](NC(=O)OC(C)(C)C)C(C)(C)C)C(=O)C(=O)NCC(=O)O` (some centres undefined), for which, on NS3 (read-out: Ki app), the Ki is 3800 nM.

In the case of `CC(C)CC(NC(=O)[C@@H]1C2CCC(C2)N1C(=O)[C@@H](NC(=O)OC(C)(C)C)C(C)(C)C)C(=O)C(=O)NCC(=O)N[C@H](C(=O)N(C)C)c1ccccc1` (some centres undefined), the Ki on NS3 (read-out: Ki app) came out at 40 nM.

With `CCCC(NC(=O)[C@@H]1C2CCC(C2)N1C(=O)[C@@H](NC(=O)OC(C)(C)C)C(C)(C)C)C(=O)C(N)=O` (some centres undefined), at NS3 (read-out: Ki app), the Ki is 6900 nM.

As for `CN(C)C(=O)[C@@H](NC(=O)CNC(=O)C(=O)C(CC1CCC1)NC(=O)[C@@H]1C2CCC(C2)N1C(=O)[C@@H](NC(=O)NC(C)(C)C)C(C)(C)C)c1ccccc1` (some centres undefined), the Ki at Neutrophil elastase was 5300 nM; at NS3 (read-out: Ki app), 13 nM. In the experiment on Hepatitis C virus, this molecule yielded an EC50 of 2000 nM.

Consider `CN(C)C(=O)[C@@H](NC(=O)CNC(=O)C(=O)C(CC1CC1)NC(=O)[C@@H]1C2CCC(C2)N1C(=O)[C@@H](NC(=O)NC(C)(C)C)C(C)(C)C)c1ccccc1` (some centres undefined), for which the Ki at Neutrophil elastase worked out at 340 nM; at NS3 (read-out: Ki app) it was 10 nM. In addition, in experiment [1], the Ratio Ki(app) was determined as 35.

With `CC(C)CC(NC(=O)[C@@H]1C2CCC(C2)N1C(=O)[C@@H](NC(=O)OC(C)(C)C)C1CCCCC1)C(=O)C(=O)NCC(=O)N[C@H](C(=O)N(C)C)c1ccccc1` (some centres undefined), the Ki on NS3 (read-out: Ki) amounted to 53 nM.

In the case of `CN(C)C(=O)[C@@H](NC(=O)CNC(=O)C(=O)C(CC1CCC1)NC(=O)[C@@H]1C2CCC(C2)N1C(=O)[C@@H](NC(=O)OC(C)(C)C)C1CCCCC1)c1ccccc1` (some centres undefined), the Ki on NS3 (read-out: Ki app) came to 51 nM.

As for `CN(C)C(=O)[C@@H](NC(=O)CNC(=O)C(=O)C(CC1CCC1)NC(=O)[C@@H]1C2CCC(C2)N1C(=O)[C@@H](NC(=O)OC(C)(C)C)C(C)(C)C)c1ccccc1` (some centres undefined), the Ki on NS3 (read-out: Ki app) worked out at 27 nM.

Turning to `CCCC(NC(=O)[C@@H]1C2CCC(C2)N1C(=O)[C@@H](NC(=O)OC(C)(C)C)C(C)(C)C)C(=O)C(=O)NCC(=O)OCc1ccccc1` (some centres undefined), the Ki at NS3 (read-out: Ki app) was 1500 nM.

With `CCCC(NC(=O)[C@@H]1C2CCC(C2)N1C(=O)[C@@H](NC(=O)OC(C)(C)C)C1CCCCC1)C(=O)C(=O)NCC(=O)N[C@H](C(=O)N(C)C)c1ccccc1` (some centres undefined), the Ki at NS3 (read-out: Ki app) was found to be 90 nM.
